Earlier results, collected in patent publication US20020025537A1, “High-throughput methods for generating and screening compounds that affect cell viability” (priority 2000, published 2002).
Bridge positions count the residues as written; N and C are the ends. Ends that are not written are not given here.

What was measured:
[1] = system: Gram negative and Gram positive pathogenic bacteria, including strains of methicillin resistant S. aureus and vancomycin resistant E. faecalis; conditions: in vitro; Gram negative and Gram positive pathogens incl. MRSA and vancomycin resistant E. faecalis
[2] = system: methicillin resistant S. aureus and vancomycin resistant E. faecalis; conditions: intravenous administration

protegrin-1 (RGGRLCYCRRRFCVCVGR-NH2; disulfide 8-13, 6-15; ends not checked; UniProt P32194 131-148, looked up) [PG-1, a native peptide obtained from porcine leukocytes]
bactericidal activity [1]: rapid bactericidal activity
toxicity to the mice [2]: without apparent toxicity
protection from lethal challenges ([2]; mice, challenge with MRSA or vancomycin resistant E. faecalis): protected mice from lethal challenges
